Measured values from ChEMBL document CHEMBL6134781, “In vitro identification of oridonin hybrids as potential anti-TNBC agents inducing cell cycle arrest and apoptosis by regulation of p21, γH2AX and cleaved PARP” (RSC Med Chem, 2024).

Experiments:
[1] = tested on: MDA-MB-231; experiment: Induction of apoptosis in human MDA-MB-231 cells assessed as necrotic cells at 3 uM incubated for 16 hrs by Annexin V-FITC/PI staining based flow cytometry (reference value: 3.89 %); type: functional
[2] = tested on: HCC1806; experiment: Induction of apoptosis in human HCC1806 cells assessed as viable cells at 3 uM incubated for 24 hrs by Annexin V-FITC/PI staining based flow cytometry (reference value: 95.4 %); type: functional; details: read-out: Activity
[3] = tested on: HCC1937; experiment: Induction of apoptosis in human HCC1937 cells assessed as viable cells at 3 uM incubated for 24 hrs by Annexin V-FITC/PI staining based flow cytometry (reference value: 97.2 %); type: functional; details: read-out: Activity
[4] = tested on: MDA-MB-468; experiment: Induction of cell cycle arrest in human MDA-MB-468 cells assessed as accumulation at G2/M phase incubated for 16 hrs by PI staining based flow cytometry; type: functional; details: dose 1-3 µM
[5] = tested on: HCC1806; experiment: Induction of apoptosis in human HCC1806 cells assessed as necrotic cells at 1 uM incubated for 24 hrs by Annexin V-FITC/PI staining based flow cytometry (reference value: 0.049 %); type: functional
[6] = tested on: MDA-MB-231; experiment: Induction of cell cycle arrest in human MDA-MB-231 cells assessed as decrease in accumulation at S phase incubated for 16 hrs by PI staining based flow cytometry; type: functional; details: dose 1-3 µM
[7] = tested on: MDA-MB-468; experiment: Induction of apoptosis in human MDA-MB-468 cells assessed as necrotic cells at 3 uM incubated for 24 hrs by Annexin V-FITC/PI staining based flow cytometry (reference value: 4.11 %); type: functional
[8] = tested on: MDA-MB-468; experiment: Induction of apoptosis in human MDA-MB-468 cells assessed as late apoptotic cells at 1 uM incubated for 24 hrs by Annexin V-FITC/PI staining based flow cytometry (reference value: 3.84 %); type: functional
[9] = tested on: HCC1806; experiment: Induction of cell cycle arrest in human HCC1806 cells assessed as accumulation at G2/M phase incubated for 16 hrs by PI staining based flow cytometry; type: functional; details: dose 1-3 µM
[10] = tested on: HCC1806; experiment: Induction of apoptosis in human HCC1806 cells assessed as viable cells at 1 uM incubated for 24 hrs by Annexin V-FITC/PI staining based flow cytometry (reference value: 95.4 %); type: functional; details: read-out: Activity
[11] = tested on: MDA-MB-468; experiment: Induction of cell cycle arrest in human MDA-MB-468 cells assessed as decrease in accumulation at S phase incubated for 16 hrs by PI staining based flow cytometry; type: functional; details: dose 1-3 µM
[12] = tested on: MDA-MB-468; experiment: Induction of apoptosis in human MDA-MB-468 cells assessed as increase in cleaved PARP-1 level incubated for 24 hrs by Western blot analysis; type: functional, cell-based; details: dose 1-3 µM
[13] = tested on: MDA-MB-231; experiment: Induction of apoptosis in human MDA-MB-231 cells assessed as late apoptotic cells at 1 uM incubated for 16 hrs by Annexin V-FITC/PI staining based flow cytometry (reference value: 4.62 %); type: functional
[14] = tested on: MDA-MB-468; experiment: Induction of apoptosis in human MDA-MB-468 cells assessed as viable cells at 1 uM incubated for 24 hrs by Annexin V-FITC/PI staining based flow cytometry (reference value: 88.9 %); type: functional; details: read-out: Activity
[15] = tested on: HCC1806; experiment: Induction of apoptosis in human HCC1806 cells assessed as necrotic cells at 3 uM incubated for 24 hrs by Annexin V-FITC/PI staining based flow cytometry (reference value: 0.049 %); type: functional
[16] = tested on: HCC1806; experiment: Cytotoxicity against human HCC1806 cells assessed as inhibition of cell viability incubated for 72 hrs by SRB assay; type: functional, cell-based; details: HCC1806, 72 h
[17] = tested on: MDA-MB-468; experiment: Induction of apoptosis in human MDA-MB-468 cells assessed as necrotic cells at 1 uM incubated for 24 hrs by Annexin V-FITC/PI staining based flow cytometry (reference value: 4.11 %); type: functional
[18] = tested on: MDA-MB-231; experiment: Induction of apoptosis in human MDA-MB-231 cells assessed as viable cells at 1 uM incubated for 16 hrs by Annexin V-FITC/PI staining based flow cytometry (reference value: 89.5 %); type: functional; details: read-out: Activity
[19] = tested on: HCC1937; experiment: Induction of apoptosis in human HCC1937 cells assessed as late apoptotic cells at 3 uM incubated for 24 hrs by Annexin V-FITC/PI staining based flow cytometry (reference value: 1.45 %); type: functional
[20] = tested on: HCC1937; experiment: Induction of apoptosis in human HCC1937 cells assessed as late apoptotic cells at 1 uM incubated for 24 hrs by Annexin V-FITC/PI staining based flow cytometry (reference value: 1.45 %); type: functional
[21] = tested on: HCC1806; experiment: Induction of apoptosis in human HCC1806 cells assessed as early apoptotic cells at 1 uM incubated for 24 hrs by Annexin V-FITC/PI staining based flow cytometry (reference value: 3.06 %); type: functional
[22] = tested on: HCC1937; experiment: Induction of DNA damage in human HCC1937 cells assessed as increase in gamma-H2AX level incubated for 24 hrs by Western blot analysis; type: functional, cell-based; details: dose 1-3 µM
[23] = tested on: MDA-MB-231; experiment: Induction of apoptosis in human MDA-MB-231 cells assessed as increase in cleaved PARP-1 level incubated for 16 hrs by Western blot analysis; type: functional, cell-based; details: dose 1-3 µM
[24] = tested on: MDA-MB-468; experiment: Induction of apoptosis in human MDA-MB-468 cells assessed as early apoptotic cells at 1 uM incubated for 24 hrs by Annexin V-FITC/PI staining based flow cytometry (reference value: 3.17 %); type: functional
[25] = tested on: HCC1937; experiment: Induction of apoptosis in human HCC1937 cells assessed as necrotic cells at 3 uM incubated for 24 hrs by Annexin V-FITC/PI staining based flow cytometry (reference value: 0.58 %); type: functional
[26] = tested on: MDA-MB-468; experiment: Effect on p21 expression in human MDA-MB-468 cells at 1 to 3 uM incubated for 16 hrs by Western blot analysis; type: functional, cell-based; details: dose 1-3 µM
[27] = tested on: HCC1806; experiment: Induction of apoptosis in human HCC1806 cells assessed as increase in cleaved PARP-1 level incubated for 24 hrs by Western blot analysis; type: functional, cell-based; details: dose 1-3 µM
[28] = tested on: HCC1937; experiment: Induction of apoptosis in human HCC1937 cells assessed as necrotic cells at 1 uM incubated for 24 hrs by Annexin V-FITC/PI staining based flow cytometry (reference value: 0.58 %); type: functional
[29] = Stability in human plasma assessed as half life at 100 uM by LC-MS/MS analysis; type: ADME, cell-free
[30] = tested on: MDA-MB-231; experiment: Induction of apoptosis in human MDA-MB-231 cells assessed as early apoptotic cells at 1 uM incubated for 16 hrs by Annexin V-FITC/PI staining based flow cytometry (reference value: 1.94 %); type: functional
[31] = tested on: MDA-MB-231; experiment: Induction of cell cycle arrest in human MDA-MB-231 cells assessed as accumulation at G2/M phase incubated for 16 hrs by PI staining based flow cytometry; type: functional; details: dose 1-3 µM
[32] = tested on: HCC1806; experiment: Induction of cell cycle arrest in human HCC1806 cells assessed as decrease in accumulation at S phase incubated for 16 hrs by PI staining based flow cytometry; type: functional; details: dose 1-3 µM
[33] = tested on: MDA-MB-231; experiment: Induction of apoptosis in human MDA-MB-231 cells assessed as necrotic cells at 1 uM incubated for 16 hrs by Annexin V-FITC/PI staining based flow cytometry (reference value: 3.89 %); type: functional
[34] = tested on: HCC1937; experiment: Induction of apoptosis in human HCC1937 cells assessed as early apoptotic cells at 3 uM incubated for 24 hrs by Annexin V-FITC/PI staining based flow cytometry (reference value: 0.74 %); type: functional
[35] = tested on: HCC1937; experiment: Cytotoxicity against human HCC1937 cells assessed as inhibition of cell viability incubated for 72 hrs by SRB assay; type: functional, cell-based; details: HCC1937, 72 h

- half-life at 100 µM [29]: 144 min
SMILES: C=C1C(=O)[C@]23[C@H](OC(=O)C45CC6CC(CC(C6)C4)C5)[C@H]1CC[C@H]2[C@@]12CO[C@]3(O)[C@@H](O)[C@@H]1C(C)(C)CC[C@@H]2O
- Activity [1]: 4.46%
- viability at 3 µM [2]: 74.8%
- viability at 3 µM [3]: 71.1%
- Activity [4]: Dose-dependent-effect
- Activity [5]: 0.088%
- Activity [6]: Dose-dependent-effect
- Activity [7]: 0.44%
- Activity [8]: 7.11%
- Activity [9]: Dose-dependent-effect
- viability at 1 µM [10]: 92.2%
- Activity [11]: Dose-dependent-effect
- Activity [12]: Dose-dependent-effect
- Activity [13]: 1.92%
- viability at 1 µM [14]: 87.5%
- Activity [15]: 0.091%
- IC50 [16]: 1400 nM
- Activity [17]: 0.22%
- viability at 1 µM [18]: 93.5%
- Activity [19]: 24.1%
- Activity [20]: 2.34%
- Activity [21]: 4.92%
- Activity [22]: Dose-dependent-effect
- Activity [23]: Dose-dependent-effect
- Activity [24]: 5.18%
- Activity [25]: 0.61%
- Activity [26]: No effect
- Activity [27]: Dose-dependent-effect
- Activity [28]: 0.33%
- Activity [30]: 4.31%
- Activity [31]: Dose-dependent-effect
- Activity [32]: Dose-dependent-effect
- Activity [33]: 0.32%
- Activity [34]: 4.23%
- IC50 [35]: 620 nM
